Test results as given in the supplement of paper PMC10307832.

Compound: CN(C/C=C/C1=CC=C(C=C1)Cl)CC2=CC=CC=C2N(CCO)S(=O)(=O)C3=CC=C(C=C3)OC [KN-93] + CCNC(=O)c1noc(-c2cc(C(C)C)c(O)cc2O)c1-c1ccc(CN2CCOCC2)cc1 [Luminespib] (partner 0.01 µM)
Assay: relative viability (nuclei count vs DMSO), 5 days (fraction); higher = more cells survive
Method in brief: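 Lung cancer cell lines in 1536-well plates got either a single drug or a fixed anchor-drug dose together with five library-drug doses (not always all listed) in √10 steps, by pin tool, on the day after seeding. Nuclei were counted after 5 days, and relative viability is the treated-to-vehicle ratio of nuclei counts. Values are medians of duplicate plates.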

| Cell Line | relative viability (first compound 0.08 µM) | relative viability (first compound 0.253 µM) | relative viability (first compound 2.53 µM) | relative viability (first compound 8 µM) |
| --- | --- | --- | --- | --- |
| PC-14 | 0.151 | 0.154 | 0.13 | 0.138 |
| NCI-H2087 | 0.16 | 0.182 | 0.184 | 0.133 |
| H3255 | 0.85 | 0.97 | 0.774 | 0.776 |
| NCI-H727 | 0.367 | 0.326 | 0.351 | 0.376 |
| NCI-H460 | 0.0407 | 0.0268 | 0.0273 | 0.0309 |
| NCI-H2228 | 0.174 | 0.126 | 0.163 | 0.134 |
| NCI-H647 | 0.168 | 0.145 | 0.13 | 0.109 |
| NCI-H2170 | 0.785 | 0.852 | 0.963 | 0.483 |
| LCLC-97TM1 | 0.717 | 0.845 | 0.849 | 0.714 |
| SK-MES-1 | 0.899 | 0.69 | 0.728 | 0.286 |
| NCI-H358 | 0.289 | 0.53 | 0.273 | 0.266 |
| A-427 | 1.16 | 1.2 | 0.866 | 0.307 |
| NCI-H1734 | 0.167 | 0.17 | 0.181 | 0.179 |
| LXF-289 | 0.536 | 0.833 | 0.787 | 0.588 |
| NCI-H1437 | 0.999 | 1.3 | 0.907 | 0.559 |
| ABC-1 | 0.701 | 0.752 | 0.368 | 0.271 |
| 201T | 1.04 | 1.16 | 0.958 | 0.697 |
| NCI-H596 | 0.924 | 1.34 | 1.21 | 0.789 |
| SK-LU-1 | 0.244 | 0.209 | 0.199 | 0.183 |
| NCI-H650 | 0.697 | 0.76 | 0.855 | 0.579 |
| LC-2-ad | 1.11 | 1.15 | 0.94 | 0.818 |
| NCI-H1792 | 0.272 | 0.396 | 0.31 | 0.367 |
| HCC-827 | 0.642 | 0.836 | 0.496 | 0.465 |

| Cell Line | relative viability (first compound 0.08 µM) | relative viability (first compound 0.253 µM) | relative viability (first compound 2.53 µM) | relative viability (first compound 8 µM) |
| --- | --- | --- | --- | --- |
| LOU-NH91 | 0.399 | 0.353 | 0.331 | 0.321 |
| NCI-H2009 | 1.05 | 1.11 | 1.08 | 0.746 |
| BEN | 0.322 | 0.331 | 0.619 | 0.214 |
| NCI-H441 | 0.295 | 0.417 | 0.36 | 0.287 |
| NCI-H1650 | 0.182 | 0.187 | 0.208 | 0.19 |
| NCI-H1915 | 0.567 | 1.47 | 0.846 | 0.748 |
| ChaGo-K-1 | 0.589 | 0.712 | 0.699 | 0.462 |
| NCI-H1755 | 0.457 | 0.436 | 0.285 | 0.221 |
| LK-2 | 0.225 | 0.176 | 0.212 | 0.174 |
| EKVX | 0.998 | 0.977 | 0.895 | 0.714 |
| HCC-44 | 1.28 | 1.01 | 1.12 | 0.752 |
| PC-3 [JPC-3] | 0.572 | 0.838 | 0.632 | 0.577 |
| NCI-H322M | 0.921 | 0.793 | 0.954 | 0.752 |
| NCI-H1355 | 0.616 | 0.636 | 0.574 | 0.552 |
| CAL-12T | 0.208 | 0.27 | 0.573 | 0.336 |
| NCI-H2126 | 1.03 | 0.984 | 0.941 | 0.708 |
| RERF-LC-KJ | 1.21 | 1.51 | 1.16 | 0.559 |
| NCI-H1563 | 0.625 | 0.483 | 0.577 | 0.517 |
| NCI-H1944 | 0.741 | 0.699 | 0.729 | 0.43 |
| COR-L23 | 0.604 | 1 | 0.978 | 0.424 |
| NCI-H2405 | 0.752 | 0.76 | 0.778 | 0.446 |
| SW 1573 | 0.178 | 0.303 | 0.187 | 0.144 |
| EPLC-272H | 0.438 | 0.183 | 0.266 | 0.173 |

| Cell Line | relative viability (first compound 0.08 µM) | relative viability (first compound 0.253 µM) | relative viability (first compound 2.53 µM) | relative viability (first compound 8 µM) |
| --- | --- | --- | --- | --- |
| NCI-H838 | 0.306 | 0.268 | 0.197 | 0.223 |
| LU99A | 0.222 | 0.23 | 0.327 | 0.246 |
| NCI-H2085 | 0.441 | 0.371 | 0.441 | 0.356 |
| HCC-15 | 0.297 | 0.319 | 0.504 | 0.279 |
| NCI-H661 | 0.896 | 1.06 | 0.851 | 0.542 |
| NCI-H1666 | 0.946 | 1.13 | 1.1 | 0.941 |
| EMC-BAC-2 | 1.07 | 1.27 | 1.18 | 0.901 |
| NCI-H1975 | 0.187 | 0.241 | 0.164 | 0.135 |
| NCI-H1395 | 0.631 | 0.619 | 0.664 | 0.604 |
| NCI-H1993 | 0.677 | 0.756 | 0.929 | 0.638 |
| NCI-H23 | 0.227 | 0.185 | 0.199 | 0.212 |
| HARA | 0.659 | 1.15 | 0.449 | 0.284 |
| NCI-H1793 | 0.193 | 0.179 | 0.195 | 0.166 |
| NCI-H3122 | 0.0763 | 0.0918 | 0.0989 | 0.0487 |
| HOP-62 | 0.842 | 1.13 | 0.995 | 0.903 |
| UMC-11 | 1.01 | 1.33 | 1.32 | 0.346 |
| NCI-H2023 | 0.693 | 0.703 | 0.872 | 0.358 |
| NCI-H1651 | 0.757 | 0.829 | 0.757 | 0.546 |
| LCLC-103H | 0.948 | 1.22 | 1.04 | 0.756 |
| COR-L 105 | 0.765 | 0.869 | 0.675 | 0.739 |
| NCI-H520 | 0.246 | 0.212 | 0.281 | 0.224 |
| NCI-H2347 | 0.618 | 0.728 | 0.458 | 0.511 |
